Entries after “also recorded” stand apart in the source; their conditions may differ.
Columns and labels:
[1] = test system: pools of well-characterized cancer cell lines; assay: MIX-Seq: scRNA-seq transcriptional response profiling of drug-treated cell line pools; type: cell-based, human
Experimental: Cell line pools were made in sets of 25 cell lines. These 25 cell line pools were chosen based on doubling time and were grown in RPMI in the absence of phenol red and with 10% FBS. Cell lines were then washed with 10 mLs of PBS, and trypsinized with 1 mL trypsin which was then removed. Ten mLs of RPMI media were added to the cells post trypsinization and resuspended. Cells were then counted by a Nexcelom cellometer using 10 uL of cell suspension and 10 ul of Trypan blue. Equal numbers of cells per cell line were mixed together and spun down at 1,250 RPM for 5 minutes. Media was aspirated and the cells were resuspended in Sigma Cell Freezing media and frozen in 1 mL aliquots. This process was repeated for all of the 25 cell line pools. For MIX-Seq experiments involving larger pools, multiple 25 cell line pools were thawed in RPMI with 10% FBS, spun down and resuspended in 5 mLs of RPMI media. Cells were then counted and equal numbers were combined together on the day of plating to form larger pools of up to ˜100 cell lines.
For drug treatment experiments, cell line pools were cultured in RPMI containing 10% fetal bovine serum, in the absence of phenol red and penicillin/streptomycin. Cell line pools were validated as Mycoplasma free prior to initiating the experiment. Cell line pools were plated at 200,000 cells per well in 6 well plates containing 2 mL of RPMI culture media described above. […] Cell pools were plated ˜16-20 hours prior to drug treatment. Cells were treated with the described drugs or vehicle (DMSO) with a 0.2% final media DMSO concentration.
Generally cells were harvested after drug treatment using standard cell culture methods. Briefly, after drug treatment cells that were in suspension (presumably containing dead cells from drug treatment) were collected and reserved for addition to the adherent cell fraction. Adherent cells were washed once with 1×PBS, trypsinized in 1 mL trypsin, incubated for 3-7 minutes at 37 C, and then trypsin inactivated with 1 mL growth media. For Cell Hashing, cells were treated with TrypLE Express (ThermoFisher) instead of trypsin to reduce the amount of cell surface proteins digested that may affect the binding of Cell Hashing antibodies.
After trypsinization, adherent and suspension cells were combined for each treatment, pelleted, and resuspended in Cell Capture Buffer (lx PBS with 0.04% BSA). Cells were counted (including trypan blue non-viable cells) and resuspended at a concentration of 1,000 cells per microliter for standard loading on the Chromium Controller (10× Genomics), or at 1,500 cells per microliter for “super loaded” samples. Up to 40,000 cells were loaded per 10× channel for “super loaded” samples, with expected recovery of up to 20,000 cells per channel. Cell suspensions were captured on a 10× Chromium controller using Single Cell 3′ reagent chemistries (either version 2 or and version 3 reagents) FIG. 26.
Sequencing data were processed using 10× Cell Ranger software, run using the Cumulus cloud-based analysis framework (Li et al. 2019). Initial experiments were done with 10× Single Cell 3′ v2 chemistry, and were processed using version 2 of the Cell Ranger software. In later experiments v3 chemistry and the corresponding version 3 of Cell Ranger were used. Reads were aligned to the hg19 reference genome.
To estimate the average transcriptional response of each cell line to a perturbation, the data were first ‘sum-collapsed’—summing read counts across cells for each cell line and treatment condition—to produce a bulk RNA-seq style read counts profile for each sample (Crowell et al. 2019; Lun & Marioni 2017). […]

[2] = test system: pools of cancer cell lines; assay: Relative cell line abundance estimated from pooled scRNA-seq; type: cell-based, human; settings: particularly 24 hours post-treatment
Excerpt: Estimates of the effects of perturbations on relative cell line abundance were obtained by counting the number of (QC-passing) single cells from each cell line in each treatment condition, adding a ‘pseudo-count’ of 1, and normalizing counts across cell lines per condition. These relative abundance estimates were averaged across samples for each treatment condition to compute the log2-fold-change difference between drug-treated and control relative cell line abundances.
For selective compounds, cell cycle effects were also well-correlated with measured viability effects, such that drugs typically had larger effects in more sensitive cell lines (FIG. 18).

cancer cell lines = settings: GDSC and PRISM drug sensitivity data; cited from earlier work
pool of 24 cell lines = assay: Trametinib time course: MIX-Seq combined with Cell Hashing; type: cell-based, human
Experimental: For the trametinib time course experiment, cells were treated with trametinib with a staggered dosing schedule so all timepoints could be collected simultaneously. Cells were plated 19 hours prior to the first drug treatment, corresponding to the 48 hour time point. Cells were harvested for 10× capture ˜67 hours after initial seeding.
Cell Hashing (Stoeckius et al., 2018) was performed using the cell harvest method described above with the following changes. All steps were performed on ice. Harvested cells were resuspended in Cell Hashing Staining Buffer (lx PBS with 2% BSA and 0.02% Tween) prior to cell counting. Samples were counted in duplicate with two technical replicates by Countess (Life Technologies) to estimate total cell number. Up to 1,000,000 cells (range 3e5-1e6 cells) were resuspended in 100 microliters of Cell Hashing Staining Buffer. Cells were blocked with 10 microliters of Human TruStain FcX blocking solution (BioLegend) for 10 minutes at 4° C. 100 microliter cell suspensions in Cell Hashing Staining Buffer were then incubated with 2 μL of the appropriate BioLegend TotalSeq™-A Hashing antibody A Hashing antibody (a 1:50 dilution, using a total of 1 μg of antibody per cell suspension). TotalSeq™-A anti-human Hashtag antibodies #4-10 and 12-15 (product codes: 394607, 394609, 394611, 394613, 394615, 394617, 394619, 394623, 394625, 394627, 394629) were used. Cells were washed three times with 0.5 mL of Cell Hashing Staining Buffer and filtered through low volume 40 μm cell strainers (Flowmi). All cell suspensions were recounted to achieve a uniform concentration of 1,500 cells per microliter before pooling for 10× capture. A detailed general protocol is available (www.protocols.io/private/4AC0F6594480B498D8B60EAF6F518E66).
Classification of single-cell treatment conditions, as well as doublet classification, from the hashtag read counts data were performed using DemuxEM (Gaublomme et al. 2019), with default parameters.
The same approach described above was used to estimate the viability-related and viability-independent components of the response at each time point post-trametinib treatment. As substantial transcriptional changes across time points after DMSO-treatment were not observed […], data across DMSO conditions was pooled for analysis.
Leveraging this, responses of a pool of 24 cell lines to trametinib were measured along five time points, ranging from 3 to 48 hours post-treatment, using Cell Hashing to multiplex treatment conditions (FIG. 5A). As controls, DMSO-treated samples were included at each of the 5 time points, in addition to untreated samples, for a total of 11 conditions. Hashtag reads provided robust labeling of treatment conditions, with good tagging efficiency across all cell lines (FIGS. 21A and 21B). Since substantial differences in DMSO-treated cells were not observed across time points (FIG. 22), they were pooled together for subsequent analysis, yielding a total of 13,713 clearly-tagged single cells across all treatment conditions and cell lines.

[3] = test system: pools of cancer cell lines; assay: Single-cell heterogeneity analysis of drug responses (clustering of scRNA-seq profiles); type: cell-based, human; settings: lung cell line IALM, 24 hours post-treatment
Excerpt: Specifically, the edgeR quasi-likelihood approach was used (Lun et al. 2016), following the pipeline in Soneson et al. 2018, with the cell detection rate (the fraction of genes with non-zero reads detected) included as a covariate.
To identify subpopulations of bortezomib treated cells (FIGS. 4D-4F), Seurat's default methods were used to normalize the data, detect variable genes, and compute PCs (using 5000 most variable genes, and 50 PCs). Seurat's default clustering methods were then used to cluster cells for each cell line (using the 20 nearest neighbors, and a clustering resolution parameter of 0.25).
To identify sub-populations of cells from a given cell line in a consistent fashion across baseline and treatment conditions (for analysis and presentation in FIG. 19), the following procedure was employed. After restricting to cells from the target cell line, the scTransform method (Hafemeiester et al. 2019) was used to normalize the data, identify 5,000 variable genes, and regress out experimental condition as a covariate to align clusters across conditions. Seurat's default clustering methods (using the top 10 PCs, 20 nearest neighbors, and a clustering resolution parameter of 0.25) were then used to identify clusters jointly across treated and control cells.

[4] = 99 cell-line pool, 24 hours post-treatment
[5] = integrating across all cell lines

For Cc1c2c(nn1C)CSCc1cc(n(C)n1)CSc1cc(c3ccccc3c1)OCCCc1c(C(=O)O)n(C)c3c-2c(Cl)ccc13 [AZD5591], which “robust transcriptional response signature” value ([1]; 6 and/or 24 hours post-treatment) is on record?
Its value is “did not produce strong and/or selective transcriptional responses; also recorded: did not produce robust transcriptional response signatures; also recorded: a robust transcriptional response to the drug was not observed”.

And the “drug-induced change in relative cell abundance versus measured drug sensitivity” value [2]?
The value was “this relationship was observed most strongly”.

What about the “long-term viability response across cell lines” value (cancer cell lines) of the same compound?
The value was “strong selective viability responses”.

Which results are given for CC(=O)Nc1cccc(-n2c(=O)n(C3CC3)c(=O)c3c(Nc4ccc(I)cc4F)n(C)c(=O)c(C)c32)c1 [trametinib]?
viability-independent response component (β0) [1, 4]: strong down-regulation of MAPK signaling genes, including EGR1, ETV4/5, DUSP4/5/6, and SPRY2/4, KRAS signaling pathways, and TNF-alpha signaling, as well as up-regulation of the interferon response; viability-related response component (β1) [1, 4]: strong down-regulation of cell-cycle processes; EGR1 expression (pool of 24 cell lines; 3 hours after treatment, sensitive cell line RCM1 and insensitive line TEN): dramatically down-regulated; time at which viability-independent down-regulation of the KRAS signaling pathway emerged (pool of 24 cell lines; [5]): 3 hours after treatment; time at which viability-related down-regulation of cell cycle genes started (pool of 24 cell lines; [5]): 24 hours after treatment; time of maximal down-regulation of viability-independent genes such as EGR1 and DUSP6 (pool of 24 cell lines; [5]): 3 hours post-treatment; MCMI expression (pool of 24 cell lines; sensitive line RCM1 vs insensitive line TEN, time course 3 to 48 hours): selectively down-regulated only in the sensitive line RCM1, and only after 12-24 hours post-treatment; time of selective down-regulation of GINS2, E2F1 and MCM4 in sensitive cell lines (pool of 24 cell lines; viability-related response): 12-24 hours post-treatment; difference in response between two baseline subpopulations [3]: subtle but significant differences

— patent US20220340976A1, “RAPID PREDICTION OF DRUG RESPONSIVENESS” (THE BROAD INSTITUTE, INC., priority 2019, published 2022)
